Test results: patent US20170253601A1, “Substituted Pyrrolidine Compounds” (EPIZYME, INC., priority 2014, published 2017)

Molecular target: T1, SMYD2 (Homo sapiens, UniProt Q9NRG4)
T1 construct: Full length SMYD2 (NP 064582.2) was cloned; His6 (N, cleaved yes); FLAG (N); made in house; host or cells: Sf9 insect cells
Experiment: SMYD2 Biochemical Assay (3H-SAM, biotinylated peptide substrate, Flashplate)
Details: IC50 values are an average of n = 1 to n = 50; read-out: SMYD2 Biochem IC50 (μM)*
How it was run: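 Methyltransferase activity tracked as 3H transfer from 10 nM 3H-SAM to 60 nM biotinylated peptide, counted after streptavidin Flashplate capture and normalised to DMSO and 1000 uM SAH controls. Enzyme: 1.5 nM full-length Sf9-expressed SMYD2, 30 min compound pre-incubation at room temperature, in Bicine pH 7.6 buffer with 2% DMSO; reactions quenched with 600 uM unlabelled SAM; IC50 from 3- or 4-parameter fit.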

T1 sequence (Q9NRG4 whole entry): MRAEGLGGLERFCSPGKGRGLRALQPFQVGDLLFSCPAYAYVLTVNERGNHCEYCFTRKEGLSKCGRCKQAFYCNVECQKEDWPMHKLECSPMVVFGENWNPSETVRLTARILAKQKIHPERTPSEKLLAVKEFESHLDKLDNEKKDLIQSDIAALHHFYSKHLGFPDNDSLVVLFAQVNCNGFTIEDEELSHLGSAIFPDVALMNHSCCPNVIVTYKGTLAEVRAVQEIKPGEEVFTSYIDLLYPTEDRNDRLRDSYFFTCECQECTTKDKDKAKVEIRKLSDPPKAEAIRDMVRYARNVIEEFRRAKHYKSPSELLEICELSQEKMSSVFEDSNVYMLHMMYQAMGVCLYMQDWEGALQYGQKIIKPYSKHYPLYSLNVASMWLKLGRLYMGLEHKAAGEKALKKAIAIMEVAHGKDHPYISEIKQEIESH

| SMILES | IC50 [µM] |
| --- | --- |
| C[C@H]1CN(c2ccnc(N)n2)C[C@H]1NC(=O)c1cc(C2CC2)on1 (racemic) [compound 334, (±)-cis-N-[1-(2-amino-pyrimidin-4-yl)-4-methylpyrrolidin-3-yl]-5-cyclopropyl-1,2-oxazole-3-carboxamide] | > 50 |
| CC(=O)Nc1ccccc1N1C[C@H](C)[C@H](NC(=O)c2cc(C3CC3)on2)C1 (racemic) [compound 335, (±)-cis-5-cyclopropyl-N-[1-(2-acetamido-phenyl)-4-methylpyrrolidin-3-yl]-1,2-oxazole-3-carboxamide] | > 50 |
| C[C@H]1CN(c2cccnc2)C[C@H]1NC(=O)c1cc(C2CC2)on1 (racemic) [compound 336, (±)-cis-5-cyclopropyl-N-[4-methyl-1-(pyridin-3-yl)pyrrolidin-3-yl]-1,2-oxazole-3-carboxamide] | > 50 |
| C[C@H]1CN(CC2CCN(C)CC2)C[C@H]1NC(=O)c1cc(C2CC2)on1 (racemic) [compound 338, (±)-cis-5-cyclopropyl-N-{4-methyl-1-[(1-methylpiperidin-4-yl)methyl]pyrrolidin-3-yl}-1,2-oxazole-3-carboxamide] | > 50 |
| C[C@H]1CN(c2ncccn2)C[C@H]1NC(=O)c1cc(C2CC2)on1 (racemic) [compound 339, (±)-cis-5-cyclopropyl-N-[4-methyl-1-(pyrimidin-2-yl)pyrrolidin-3-yl]-1,2-oxazole-3-carboxamide] | > 50 |
| C[C@H]1CN(c2ccncn2)C[C@H]1NC(=O)c1cc(C2CC2)on1 (racemic) [compound 340, (±)-cis-5-cyclopropyl-N-[4-methyl-1-(pyrimidin-4-yl)pyrrolidin-3-yl]-1,2-oxazole-3-carboxamide] | > 50 |
| CC(C)N1C[C@H](C)[C@H](NC(=O)c2cc(C3CNC3)on2)C1 (racemic) [compound 342, (±)-cis-5-(azetidin-3-yl)-N-[4-methyl-1-(propan-2-yl)pyrrolidin-3-yl]-1,2-oxazole-3-carboxamide] | > 50 |
| CC(C)N1C[C@H](C)[C@H](NC(=O)c2cc(C3CN(C)C3)on2)C1 (racemic) [compound 343, (±)-cis-N-[4-methyl-1-(propan-2-yl)pyrrolidin-3-yl]-5-(1-methylazetidin-3-yl)-1,2-oxazole-3-carboxamide] | > 50 |
| CC(C)N1C[C@H](C)[C@H](NC(=O)c2cc(C3(O)COC3)on2)C1 (racemic) [compound 346, (±)-cis-5-(3-hydroxyoxetan-3-yl)-N-[4-methyl-1-(propan-2-yl)pyrrolidin-3-yl]-1,2-oxazole-3-carboxamide] | > 50 |
| CCOC(=O)C(C)CN1C[C@@H](C)[C@H](NC(=O)c2cc(C3CC3)on2)C1 (relative stereo) [compound 128, trans-ethyl 3-[3-(5-cyclopropyl-1,2-oxazole-3-amido)-4-methylpyrrolidin-1-yl]-2-methylpropanoate] | > 50 |

Continued, values first:

| IC50 [µM] | SMILES |
| --- | --- |
| 49.7 | C[C@H]1CN(Cc2ncc[nH]2)C[C@H]1NC(=O)c1cc(C2CC2)on1 (racemic) [compound 327, (±)-cis-5-cyclopropyl-N-[1-(1H-imidazol-2-ylmethyl)-4-methyl-pyrrolidin-3-yl]-1,2-oxazole-3-carboxamide] |
| 2.65 | C[C@H]1CN(Cc2c[nH]cn2)C[C@H]1NC(=O)c1cc(C2CC2)on1 (racemic) [compound 328, (±)-cis-5-cyclopropyl-N-[1-(1H-imidazol-4-ylmethyl)-4-methyl-pyrrolidin-3-yl]-1,2-oxazole-3-carboxamide] |
| 3.57 | C[C@H]1CN(Cc2cccc3c2OCO3)C[C@H]1NC(=O)c1cc(C2CC2)on1 (racemic) [compound 331, (±)-cis-N-[1-(2H-1,3-benzodioxol-4-ylmethyl)-4-methyl-pyrrolidin-3-yl]-5-cyclopropyl-1,2-oxazole-3-carboxamide] |
| 24.2 | C[C@H]1CN(Cc2ccc3ncccc3c2)C[C@H]1NC(=O)c1cc(C2CC2)on1 (racemic) [compound 332, (±)-cis-5-cyclopropyl-N-[4-methyl-1-(quinolin-6-ylmethyl)pyrrolidin-3-yl]-1,2-oxazole-3-carboxamide] |
| > 50 | COc1cc(CN2C[C@H](C)[C@H](NC(=O)c3cc(C4CC4)on3)C2)cc(OC)c1 (racemic) [compound 333, (±)-cis-5-cyclopropyl-N-{1-[(3,5-dimethoxy-phenyl)methyl]-4-methylpyrrolidin-3-yl}-1,2-oxazole-3-carboxamide] |
| 10.6 | C[C@H]1CN(CCC2CCNCC2)C[C@H]1NC(=O)c1cc(C2CC2)on1 (racemic) [compound 337, (±)-cis-5-cyclopropyl-N-{4-methyl-1-[2-(piperidin-4-yl)ethyl]pyrrolidin-3-yl}-1,2-oxazole-3-carboxamide] |
| 22.8 | CC(C)N1C[C@H](C)[C@H](NC(=O)c2cc(C#N)on2)C1 (racemic) [compound 341, (±)-cis-5-cyano-N-[4-methyl-1-(propan-2-yl)pyrrolidin-3-yl]-1,2-oxazole-3-carboxamide] |
| 5.84 | CC(C)N1C[C@H](C)[C@H](NC(=O)c2cc(CC(F)F)on2)C1 (racemic) [compound 345, (±)-cis-5-(2,2-difluoro-ethyl)-N-[4-methyl-1-(propan-2-yl)pyrrolidin-3-yl]-1,2-oxazole-3-carboxamide] |
| 6.68 | CC(C)N1C[C@H](C)[C@H](NC(=O)c2cc(C(F)(F)F)on2)C1 (racemic) [compound 348, (±)-cis-N-[4-methyl-1-(propan-2-yl)pyrrolidin-3-yl]-5-(trifluoromethyl)-1,2-oxazole-3-carboxamide] |
| 20.8 | CCOC(=O)C(C)CN1C[C@H](C)[C@H](NC(=O)c2cc(C3CC3)on2)C1 (relative stereo) [compound 186, cis-ethyl 3-[3-(5-cyclopropyl-1,2-oxazole-3-amido)-4-methylpyrrolidin-1-yl]-2-methylpropanoate] |
| 9.31 | CC(Cc1ccc2c(c1)OCO2)CN1C[C@H](C)[C@H](NC(=O)c2cc(C3CC3)on2)C1 (relative stereo) [compound 323, cis-N-{1-[2-(2H-1,3-benzodioxol-5-ylmethyl)propyl]-4-methylpyrrolidin-3-yl}-5-cyclopropyl-1,2-oxazole-3-carboxamide] |
| 1.15 | CCC(c1ccccc1)N1C[C@H](C)[C@H](NC(=O)c2cc(C3CC3)on2)C1 (relative stereo) [compound 329, cis-5-cyclopropyl-N-[4-methyl-1-(1-phenyl-propyl)pyrrolidin-3-yl]-1,2-oxazole-3-carboxamide] |
| 9.44 | C[C@H]1CN(C(CO)c2ccccc2)C[C@H]1NC(=O)c1cc(C2CC2)on1 (relative stereo) [compound 330, cis-5-cyclopropyl-N-[1-(2-hydroxy-1-phenylethyl)-4-methyl-pyrrolidin-3-yl]-1,2-oxazole-3-carboxamide] |
| 10.2 | CC(c1cc(C(=O)N[C@@H]2CN(C(C)C)C[C@@H]2C)no1)C(F)F (relative stereo) [compound 344, cis-5-(1,1-difluoropropan-2-yl)-N-[4-methyl-1-(propan-2-yl)pyrrolidin-3-yl]-1,2-oxazole-3-carboxamide] |
| 5.28 | CCOC(=O)C1CC1CN1C[C@H](C)[C@H](NC(=O)c2cc(C3CC3)on2)C1 (stereo in doubt) [compound 176, cis-ethyl 2-{[3-(5-cyclopropyl-1,2-oxazole-3-amido)-4-methylpyrrolidin-1-yl]methyl}cyclopropane-1-carboxylate] |
